Reference: US20260327214A1, “1,3,4-OXADIAZOLE DERIVATIVE COMPOUNDS AS HISTONE DEACETYLASE 6 INHIBITOR, AND USES THEREOF” (CHONG KUN DANG PHARMACEUTICAL CORP., priority 2022, published 2026)

Tests used:
human recombinant HDAC1 = target: T1, human recombinant HDAC1 (Homo sapiens, UniProt Q13547); experiment: HDAC1 enzyme activity inhibition test (HDAC Fluorometric Drug Discovery Kit); format: biochemical; conditions: 30° C., 60 minutes, 10 μM substrate
T1 construct: purchased Enzo Life Science BML-SE456
Summary of the method: (§1)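 Recombinant human HDAC1 or HDAC6 (0.3 μg) reacted with 10 μM Fluor de Lys SIRT1 substrate and 5-fold diluted compound for 60 min at 30 °C. Developer II added 30 min; fluorescence read at Ex 360/Em 460 and IC50 calculated.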

human recombinant HDAC6 = target: T2, human recombinant HDAC6 (Homo sapiens, UniProt Q9UBN7); experiment: HDAC6 enzyme activity inhibition test (HDAC Fluorometric Drug Discovery Kit); format: biochemical; conditions: for HDAC6 selectivity (fold): HDAC6 over HDAC1; for IC50: human recombinant HDAC6, same protocol as HDAC1
T2 construct: purchased Calbiochem 382180
T2 sequence (Q9UBN7 1-1215): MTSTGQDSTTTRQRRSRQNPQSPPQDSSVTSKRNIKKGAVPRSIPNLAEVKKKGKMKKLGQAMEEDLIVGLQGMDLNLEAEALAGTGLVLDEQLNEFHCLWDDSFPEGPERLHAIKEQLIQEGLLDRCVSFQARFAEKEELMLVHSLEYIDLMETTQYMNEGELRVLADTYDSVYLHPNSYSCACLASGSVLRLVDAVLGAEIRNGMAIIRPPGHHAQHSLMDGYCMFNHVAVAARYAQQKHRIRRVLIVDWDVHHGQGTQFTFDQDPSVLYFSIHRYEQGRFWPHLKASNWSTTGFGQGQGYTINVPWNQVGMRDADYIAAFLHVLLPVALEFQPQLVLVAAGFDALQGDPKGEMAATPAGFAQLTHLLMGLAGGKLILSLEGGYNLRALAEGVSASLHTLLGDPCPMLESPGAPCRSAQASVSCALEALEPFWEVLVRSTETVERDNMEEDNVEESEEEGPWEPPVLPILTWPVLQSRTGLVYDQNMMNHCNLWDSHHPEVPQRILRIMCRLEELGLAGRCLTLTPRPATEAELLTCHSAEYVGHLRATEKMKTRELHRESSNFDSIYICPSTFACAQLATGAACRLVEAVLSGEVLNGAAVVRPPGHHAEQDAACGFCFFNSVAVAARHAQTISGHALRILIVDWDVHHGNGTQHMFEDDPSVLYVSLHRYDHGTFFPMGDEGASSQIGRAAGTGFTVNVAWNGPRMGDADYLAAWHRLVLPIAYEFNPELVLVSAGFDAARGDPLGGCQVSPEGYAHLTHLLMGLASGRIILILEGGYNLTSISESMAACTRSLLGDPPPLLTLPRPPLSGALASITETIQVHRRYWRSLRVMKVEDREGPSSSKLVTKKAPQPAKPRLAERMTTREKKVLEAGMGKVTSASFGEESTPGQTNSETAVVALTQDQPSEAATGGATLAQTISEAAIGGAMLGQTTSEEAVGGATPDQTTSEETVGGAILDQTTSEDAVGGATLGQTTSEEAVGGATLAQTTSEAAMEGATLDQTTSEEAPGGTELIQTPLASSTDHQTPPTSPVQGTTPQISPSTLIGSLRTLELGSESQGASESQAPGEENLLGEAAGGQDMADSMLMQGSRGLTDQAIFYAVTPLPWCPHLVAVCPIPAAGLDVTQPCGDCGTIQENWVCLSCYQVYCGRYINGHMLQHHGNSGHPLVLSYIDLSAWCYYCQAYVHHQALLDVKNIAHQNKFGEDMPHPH
Summary of the method: as §1

T1 sequence (Q13547 whole entry): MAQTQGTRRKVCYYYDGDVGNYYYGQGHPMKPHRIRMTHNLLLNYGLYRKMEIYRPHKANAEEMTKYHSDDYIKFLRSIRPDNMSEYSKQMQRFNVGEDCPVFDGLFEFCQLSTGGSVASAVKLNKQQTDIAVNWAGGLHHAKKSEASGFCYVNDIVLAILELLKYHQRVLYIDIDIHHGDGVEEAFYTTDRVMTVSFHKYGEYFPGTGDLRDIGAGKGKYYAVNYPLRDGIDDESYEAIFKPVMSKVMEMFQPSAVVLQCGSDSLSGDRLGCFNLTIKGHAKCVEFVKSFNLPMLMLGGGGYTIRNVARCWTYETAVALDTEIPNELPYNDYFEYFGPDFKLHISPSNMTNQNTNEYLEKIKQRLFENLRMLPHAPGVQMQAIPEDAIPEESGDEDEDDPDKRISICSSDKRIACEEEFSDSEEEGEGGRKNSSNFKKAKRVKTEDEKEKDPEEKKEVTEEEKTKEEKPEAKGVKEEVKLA

Row | IC50 (human recombinant HDAC1) [nM] | HDAC6 selectivity (fold) (human recombinant HDAC6) | IC50 (human recombinant HDAC6) [nM] | Compound
1 | > 50000 | 639 | 78.2 | CN(C)Cc1ccc(-c2nn(Cc3ccc(-c4nnc(C(F)F)o4)cn3)c(=S)o2)s1 [Compound 121, 3-[[5-[5-(difluoromethyl)-1,3,4-oxadiazol-2-yl]-2-pyridyl]methyl]-5-[5-[(dimethylamino)methyl]-2-thienyl]-1,3,4-oxadiazol-2-thione]
2 | > 50000 | 453 | 110 | CCN(CC)Cc1ccc(-c2nn(Cc3ccc(-c4nnc(C(F)F)o4)cn3)c(=S)o2)s1 [Compound 122, 5-[5-(diethylaminomethyl)-2-thienyl]-3-[[5-[5-(difluoromethyl)-1,3,4-oxadiazol-2-yl]-2-pyridyl]methyl]-1,3,4-oxadiazol-2-thione]
3 | > 50000 | 1109 | 45.1 | FC(F)c1nnc(-c2ccc(Cn3nc(-c4ccc(CN5CCC5)s4)oc3=S)nc2)o1 [Compound 123, 5-[5-(azetidine-1-ylmethyl)-2-thienyl]-3-[[5-[5-(difluoromethyl)-1,3,4-oxadiazol-2-yl]-2-pyridyl]methyl]-1,3,4-oxadiazol-2-thione]
4 | > 50000 | 491 | 102 | FC(F)c1nnc(-c2ccc(Cn3nc(-c4ccc(CN5CC[C@@H](F)C5)s4)oc3=S)nc2)o1 [Compound 124, 3-[[5-[5-(difluoromethyl)-1,3,4-oxadiazol-2-yl]-2-pyridyl]methyl]-5-[5-[[(3R)-3-fluoropyrrolidin-1-yl]methyl]-2-thienyl]-1,3,4-oxadiazol-2-thione]
5 | > 50000 | 563 | 88.8 | FC(F)c1nnc(-c2ccc(Cn3nc(-c4ccc(CN5CC[C@H](F)C5)s4)oc3=S)nc2)o1 [Compound 125, 3-[[5-[5-(difluoromethyl)-1,3,4-oxadiazol-2-yl]-2-pyridyl]methyl]-5-[5-[[(3S)-3-fluoropyrrolidin-1-yl]methyl]-2-thienyl]-1,3,4-oxadiazol-2-thione]
6 | > 50000 | 977 | 51.2 | CN1CCN(c2nccc(-c3nn(Cc4ccc(-c5nnc(C(F)F)o5)cn4)c(=S)o3)n2)CC1 [Compound 126, 3-[[5-[5-(difluoromethyl)-1,3,4-oxadiazol-2-yl]-2-pyridyl]methyl]-5-[2-(4-methylpiperazin-1-yl)pyrimidin-4-yl]-1,3,4-oxadiazol-2-thione]
7 | > 50000 | 879 | 56.9 | CC(C)N1CCN(c2nccc(-c3nn(Cc4ccc(-c5nnc(C(F)F)o5)cn4)c(=S)o3)n2)CC1 [Compound 127, 3-[[5-[5-(difluoromethyl)-1,3,4-oxadiazol-2-yl]-2-pyridyl]methyl]-5-[2-(4-isopropylpiperazin-1-yl)pyrimidin-4-yl]-1,3,4-oxadiazol-2-thione]
8 | > 50000 | 583 | 85.7 | CN(C)Cc1ccc(-c2nn(Cc3ncc(-c4nnc(C(F)F)o4)cc3F)c(=S)o2)s1 [Compound 128, 3-[[5-[5-(difluoromethyl)-1,3,4-oxadiazol-2-yl]-3-fluoro-2-pyridyl]methyl]-5-[5-[(dimethylamino)methyl]-2-thienyl]-1,3,4-oxadiazol-2-thione]
9 | > 50000 | 457 | 109 | CCN(CC)Cc1ccc(-c2nn(Cc3ncc(-c4nnc(C(F)F)o4)cc3F)c(=S)o2)s1 [Compound 129, 5-[5-(diethylaminomethyl)-2-thienyl]-3-[[5-[5-(difluoromethyl)-1,3,4-oxadiazol-2-yl]-3-fluoro-2-pyridyl]methyl]-1,3,4-oxadiazol-2-thione]
10 | > 50000 | 750 | 66.7 | Fc1cc(-c2nnc(C(F)F)o2)cnc1Cn1nc(-c2ccc(CN3CCC3)s2)oc1=S [Compound 130, 5-[5-(azetidine-1-ylmethyl)-2-thienyl]-3-[[5-[5-(difluoromethyl)-1,3,4-oxadiazol-2-yl]-3-fluoro-2-pyridyl]methyl]-1,3,4-oxadiazol-2-thione]
11 | > 50000 | 612 | 81.7 | CN(C)Cc1cc(-c2nn(Cc3ccc(-c4nnc(C(F)F)o4)cn3)c(=S)o2)cs1 [Compound 131, 3-[[5-[5-(difluoromethyl)-1,3,4-oxadiazol-2-yl]-2-pyridyl]methyl]-5-[5-[(dimethylamino)methyl]-3-thienyl]-1,3,4-oxadiazol-2-thione]
12 | > 50000 | 484 | 103 | O=c1oc(-c2ccc(CN3CCC3)cc2)nn1Cc1ccc(-c2nnc(C(F)F)o2)cn1 [Compound 132, 5-[4-(azetidin-1-ylmethyl)phenyl]-3-[[5-[5-(difluoromethyl)-1,3,4-oxadiazol-2-yl]-2-pyridyl]methyl]-1,3,4-oxadiazol-2-one]
13 | > 50000 | 442 | 113 | O=c1oc(-c2ccc(CN3CCCCC3)cc2)nn1Cc1ccc(-c2nnc(C(F)F)o2)cn1 [Compound 133, 3-[[5-[5-(difluoromethyl)-1,3,4-oxadiazol-2-yl]-2-pyridyl]methyl]-5-[4-(1-piperidylmethyl)phenyl]-1,3,4-oxadiazol-2-one]
14 | > 50000 | 680 | 73.5 | FC(F)c1nnc(-c2ccc(Cn3nc(-c4csc(CN5CCC5)c4)oc3=S)nc2)o1 [Compound 134, 5-[5-(azetidine-1-ylmethyl)-3-thienyl]-3-[[5-[5-(difluoromethyl)-1,3,4-oxadiazol-2-yl]-2-pyridyl]methyl]-1,3,4-oxadiazol-2-thione]
15 | > 50000 | 741 | 67.5 | CN1CCc2cc(-c3nn(Cc4ncc(-c5nnc(C(F)F)o5)cc4F)c(=S)o3)ccc2C1 [Compound 135, 3-[[5-[5-(difluoromethyl)-1,3,4-oxadiazol-2-yl]-3-fluoro-2-pyridyl]methyl]-5-(2-methyl-3,4-dihydro-1H-isoquinolin-6-yl)-1,3,4-oxadiazol-2-thione]
16 | > 50000 | 840 | 59.5 | CC(C)N1CCc2cc(-c3nn(Cc4ncc(-c5nnc(C(F)F)o5)cc4F)c(=S)o3)ccc2C1 [Compound 136, 3-[[5-[5-(difluoromethyl)-1,3,4-oxadiazol-2-yl]-3-fluoro-2-pyridyl]methyl]-5-(2-isopropyl-3,4-dihydro-1H-isoquinolin-6-yl)-1,3,4-oxadiazol-2-thione]
17 | > 50000 | 1075 | 46.5 | Fc1cc(-c2nnc(C(F)F)o2)cnc1Cn1nc(-c2ccc3c(c2)CCN(C2CCC2)C3)oc1=S [Compound 137, 5-(2-cyclobutyl-3,4-dihydro-1H-isoquinolin-6-yl)-3-[[5-[5-(difluoromethyl)-1,3,4-oxadiazol-2-yl]-3-fluoro-2-pyridyl]methyl]-1,3,4-oxadiazol-2-thione]
18 | > 50000 | 1042 | 48.7 | Fc1cc(-c2nnc(C(F)F)o2)cnc1Cn1nc(-c2ccc3c(c2)CCN(C2CCCCC2)C3)oc1=S [Compound 138, 5-(2-cyclohexyl-3,4-dihydro-1H-isoquinolin-6-yl)-3-[[5-[5-(difluoromethyl)-1,3,4-oxadiazol-2-yl]-3-fluoro-2-pyridyl]methyl]-1,3,4-oxadiazol-2-thione]
19 | > 50000 | 552 | 90.6 | CN1CCc2cc(-c3nn(Cc4ccc(-c5nnc(C(F)F)o5)cn4)c(=S)o3)sc2C1 [Compound 139, 3-[[5-[5-(difluoromethyl)-1,3,4-oxadiazol-2-yl]-2-pyridyl]methyl]-5-(6-methyl-5,7-dihydro-4H-thieno[2,3-c]pyridin-2-yl)-1,3,4-oxadiazol-2-thione]
